# According to patent US9113629B2, “4-amino-6-(4-substituted-phenyl)-picolinates and 6-amino-2-(4-substituted-phenyl)-pyrimidine-4-carboxylates and their use as herbicides” (DOW AGROSCIENCES LLC, priority 2013, dated 2015):
# Tested on: Key Broadleaf Weed and Crop Species
# Test: Post-emergent Test II herbicidal activity (Table 5)
# Format: in vivo
# Settings: post-emergence, 336 h; ABUTH: velvetleaf (Abutilon theophrasti); application rate 70 g ai/ha; 14 days after application; read-out: Visual Growth Reduction (%) 14 Days After Application, ABUTH
# Procedure, shortened: (§1)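 Plants grown in Metro-Mix 360 (pH 6.0–6.8) in a greenhouse (~15 h photoperiod, 23–29 °C day) to first or second true leaf stage, then sprayed with compound in acetone/DMSO/aqueous crop-oil-surfactant carrier at 187 L/ha by track sprayer. Injury visually scored 0–100% versus untreated plants after 14 d.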
row,Compound,pest or weed control at 70 g/ha [%]
1,COC(=O)c1nc(-c2ccc(C#N)cc2)c(F)c(N)c1Cl [Compound 142],95 to 100

# Same assay, conditions: post-emergence, 336 h; ABUTH: velvetleaf (Abutilon theophrasti); application rate 140 g ai/ha; 14 days after application; read-out: Visual Growth Reduction (%) 14 Days After Application, ABUTH
row,Compound,pest or weed control at 140 g/ha [%]
1,COC(=O)c1nc(-c2ccc(C#N)cc2)c(F)c(N)c1Cl [Compound 142],95 to 100

# Same assay, conditions: post-emergence, 336 h; AMARE: redroot pigweed (Amaranthus retroflexus); application rate 70 g ai/ha; 14 days after application; read-out: Visual Growth Reduction (%) 14 Days After Application, AMARE
row,Compound,pest or weed control at 70 g/ha [%]
1,COC(=O)c1nc(-c2ccc(C#N)cc2)c(F)c(N)c1Cl [Compound 142],95 to 100

# Same assay, conditions: post-emergence, 336 h; AMARE: redroot pigweed (Amaranthus retroflexus); application rate 140 g ai/ha; 14 days after application; read-out: Visual Growth Reduction (%) 14 Days After Application, AMARE
row,Compound,pest or weed control at 140 g/ha [%]
1,COC(=O)c1nc(-c2ccc(C#N)cc2)c(F)c(N)c1Cl [Compound 142],95 to 100

# Same assay, conditions: post-emergence, 336 h; BRSNN: oilseed-rape, canola (Brassica napus); application rate 70 g ai/ha; 14 days after application; read-out: Visual Growth Reduction (%) 14 Days After Application, BRSNN
row,Compound,pest or weed control at 70 g/ha [%]
1,COC(=O)c1nc(-c2ccc(C#N)cc2)c(F)c(N)c1Cl [Compound 142],0 to 29

# Same assay, conditions: post-emergence, 336 h; BRSNN: oilseed-rape, canola (Brassica napus); application rate 140 g ai/ha; 14 days after application; read-out: Visual Growth Reduction (%) 14 Days After Application, BRSNN
row,Compound,pest or weed control at 140 g/ha [%]
1,COC(=O)c1nc(-c2ccc(C#N)cc2)c(F)c(N)c1Cl [Compound 142],0 to 29

# Same assay, conditions: post-emergence, 336 h; CHEAL: lambsquarters (Chenopodium album); application rate 70 g ai/ha; 14 days after application; read-out: Visual Growth Reduction (%) 14 Days After Application, CHEAL
row,Compound,pest or weed control at 70 g/ha [%]
1,COC(=O)c1nc(-c2ccc(C#N)cc2)c(F)c(N)c1Cl [Compound 142],95 to 100

# Same assay, conditions: post-emergence, 336 h; CHEAL: lambsquarters (Chenopodium album); application rate 140 g ai/ha; 14 days after application; read-out: Visual Growth Reduction (%) 14 Days After Application, CHEAL
row,Compound,pest or weed control at 140 g/ha [%]
1,COC(=O)c1nc(-c2ccc(C#N)cc2)c(F)c(N)c1Cl [Compound 142],95 to 100

# Same assay, conditions: post-emergence, 336 h; EPHHL: wild poinsettia (Euphorbia heterophylla); application rate 70 g ai/ha; 14 days after application; read-out: Visual Growth Reduction (%) 14 Days After Application, EPHHL
row,Compound,pest or weed control at 70 g/ha [%]
1,COC(=O)c1nc(-c2ccc(C#N)cc2)c(F)c(N)c1Cl [Compound 142],95 to 100

# Same assay, conditions: post-emergence, 336 h; EPHHL: wild poinsettia (Euphorbia heterophylla); application rate 140 g ai/ha; 14 days after application; read-out: Visual Growth Reduction (%) 14 Days After Application, EPHHL
row,Compound,pest or weed control at 140 g/ha [%]
1,COC(=O)c1nc(-c2ccc(C#N)cc2)c(F)c(N)c1Cl [Compound 142],95 to 100

# Same assay, conditions: post-emergence, 336 h; HELAN: sunflower (Helianthus annuus); application rate 70 g ai/ha; 14 days after application; read-out: Visual Growth Reduction (%) 14 Days After Application, HELAN
row,Compound,pest or weed control at 70 g/ha [%]
1,COC(=O)c1nc(-c2ccc(C#N)cc2)c(F)c(N)c1Cl [Compound 142],95 to 100

# Same assay, conditions: post-emergence, 336 h; HELAN: sunflower (Helianthus annuus); application rate 140 g ai/ha; 14 days after application; read-out: Visual Growth Reduction (%) 14 Days After Application, HELAN
row,Compound,pest or weed control at 140 g/ha [%]
1,COC(=O)c1nc(-c2ccc(C#N)cc2)c(F)c(N)c1Cl [Compound 142],95 to 100

# Same assay, conditions: post-emergence, 336 h; VIOTR: wild pansy (Viola tricolor); application rate 70 g ai/ha; 14 days after application; read-out: Visual Growth Reduction (%) 14 Days After Application, VIOTR
row,Compound,pest or weed control at 70 g/ha [%]
1,COC(=O)c1nc(-c2ccc(C#N)cc2)c(F)c(N)c1Cl [Compound 142],75 to 84

# Same assay, conditions: post-emergence, 336 h; VIOTR: wild pansy (Viola tricolor); application rate 140 g ai/ha; 14 days after application; read-out: Visual Growth Reduction (%) 14 Days After Application, VIOTR
row,Compound,pest or weed control at 140 g/ha [%]
1,COC(=O)c1nc(-c2ccc(C#N)cc2)c(F)c(N)c1Cl [Compound 142],85 to 94

# Tested on: Key Grass and Sedge Weeds as well as Grass Crops
# Test: Post-emergent Test II herbicidal activity (Table 6)
# Format: in vivo
# Settings: post-emergence, 336 h, CYPES: yellow nutsedge (Cyperus esculentus), 70 g ai/ha, read-out: Visual Growth Reduction (%) 14 Days After Application, CYPES
# Procedure, shortened: as §1
row,Compound,pest or weed control at 70 g/ha [%]
1,COC(=O)c1nc(-c2ccc(C#N)cc2)c(F)c(N)c1Cl [Compound 142],75 to 84

# Same assay, conditions: post-emergence, 336 h, CYPES: yellow nutsedge (Cyperus esculentus), 140 g ai/ha, read-out: Visual Growth Reduction (%) 14 Days After Application, CYPES
row,Compound,pest or weed control at 140 g/ha [%]
1,COC(=O)c1nc(-c2ccc(C#N)cc2)c(F)c(N)c1Cl [Compound 142],85 to 94

# Same assay, conditions: post-emergence, 336 h, DIGSA: crabgrass (Digitaria sanguinalis), 70 g ai/ha, read-out: Visual Growth Reduction (%) 14 Days After Application, DIGSA
row,Compound,pest or weed control at 70 g/ha [%]
1,COC(=O)c1nc(-c2ccc(C#N)cc2)c(F)c(N)c1Cl [Compound 142],60 to 74

# Same assay, conditions: post-emergence, 336 h, DIGSA: crabgrass (Digitaria sanguinalis), 140 g ai/ha, read-out: Visual Growth Reduction (%) 14 Days After Application, DIGSA
row,Compound,pest or weed control at 140 g/ha [%]
1,COC(=O)c1nc(-c2ccc(C#N)cc2)c(F)c(N)c1Cl [Compound 142],60 to 74

# Same assay, conditions: post-emergence, 336 h, ECHCG: barnyardgrass (Echinochloa crus-galli), 70 g ai/ha, read-out: Visual Growth Reduction (%) 14 Days After Application, ECHCG
row,Compound,pest or weed control at 70 g/ha [%]
1,COC(=O)c1nc(-c2ccc(C#N)cc2)c(F)c(N)c1Cl [Compound 142],75 to 84

# Same assay, conditions: post-emergence, 336 h, ECHCG: barnyardgrass (Echinochloa crus-galli), 140 g ai/ha, read-out: Visual Growth Reduction (%) 14 Days After Application, ECHCG
row,Compound,pest or weed control at 140 g/ha [%]
1,COC(=O)c1nc(-c2ccc(C#N)cc2)c(F)c(N)c1Cl [Compound 142],85 to 94

# Same assay, conditions: post-emergence, 336 h, ORYSA: rice (Oryza sativa), crop, 70 g ai/ha, read-out: Visual Growth Reduction (%) 14 Days After Application, ORYSA
row,Compound,pest or weed control at 70 g/ha [%]
1,COC(=O)c1nc(-c2ccc(C#N)cc2)c(F)c(N)c1Cl [Compound 142],0 to 29

# Same assay, conditions: post-emergence, 336 h, ORYSA: rice (Oryza sativa), crop, 140 g ai/ha, read-out: Visual Growth Reduction (%) 14 Days After Application, ORYSA
row,Compound,pest or weed control at 140 g/ha [%]
1,COC(=O)c1nc(-c2ccc(C#N)cc2)c(F)c(N)c1Cl [Compound 142],0 to 29

# Same assay, conditions: post-emergence, 336 h, SETFA: giant foxtail (Setaria faberi), 70 g ai/ha, read-out: Visual Growth Reduction (%) 14 Days After Application, SETFA
row,Compound,pest or weed control at 70 g/ha [%]
1,COC(=O)c1nc(-c2ccc(C#N)cc2)c(F)c(N)c1Cl [Compound 142],0 to 29

# Same assay, conditions: post-emergence, 336 h, SETFA: giant foxtail (Setaria faberi), 140 g ai/ha, read-out: Visual Growth Reduction (%) 14 Days After Application, SETFA
row,Compound,pest or weed control at 140 g/ha [%]
1,COC(=O)c1nc(-c2ccc(C#N)cc2)c(F)c(N)c1Cl [Compound 142],0 to 29

# Same assay, conditions: post-emergence, 336 h, SORVU: grain sorghum (Sorghum vulgare), 70 g ai/ha, read-out: Visual Growth Reduction (%) 14 Days After Application, SORVU
row,Compound,pest or weed control at 70 g/ha [%]
1,COC(=O)c1nc(-c2ccc(C#N)cc2)c(F)c(N)c1Cl [Compound 142],45 to 59

# Same assay, conditions: post-emergence, 336 h, SORVU: grain sorghum (Sorghum vulgare), 140 g ai/ha, read-out: Visual Growth Reduction (%) 14 Days After Application, SORVU
row,Compound,pest or weed control at 140 g/ha [%]
1,COC(=O)c1nc(-c2ccc(C#N)cc2)c(F)c(N)c1Cl [Compound 142],45 to 59

# Same assay, conditions: post-emergence, 336 h, TRZSS (wheat, Triticum aestivum), crop, 70 g ai/ha, read-out: Visual Growth Reduction (%) 14 Days After Application, TRZSS
row,Compound,pest or weed control at 70 g/ha [%]
1,COC(=O)c1nc(-c2ccc(C#N)cc2)c(F)c(N)c1Cl [Compound 142],0 to 29

# Same assay, conditions: post-emergence, 336 h, TRZSS (wheat, Triticum aestivum), crop, 140 g ai/ha, read-out: Visual Growth Reduction (%) 14 Days After Application, TRZSS
row,Compound,pest or weed control at 140 g/ha [%]
1,COC(=O)c1nc(-c2ccc(C#N)cc2)c(F)c(N)c1Cl [Compound 142],30 to 44

# Same assay, conditions: post-emergence, 336 h, ZEAMX: maize, corn (Zea mays), crop, 70 g ai/ha, read-out: Visual Growth Reduction (%) 14 Days After Application, ZEAMX
row,Compound,pest or weed control at 70 g/ha [%]
1,COC(=O)c1nc(-c2ccc(C#N)cc2)c(F)c(N)c1Cl [Compound 142],45 to 59

# Same assay, conditions: post-emergence, 336 h, ZEAMX: maize, corn (Zea mays), crop, 140 g ai/ha, read-out: Visual Growth Reduction (%) 14 Days After Application, ZEAMX
row,Compound,pest or weed control at 140 g/ha [%]
1,COC(=O)c1nc(-c2ccc(C#N)cc2)c(F)c(N)c1Cl [Compound 142],60 to 74
